According to patent publication US4329347A, “Cardiotonic and antithrombotic sulfur-containing derivatives of carbostyril” (Boehringer Ingelheim GmbH, priority 1978, dated 1982):
Like-named read-outs stand apart in the source and are kept apart here.

Assays:
[1] = test system: thrombocyte aggregation in platelet-rich plasma of healthy human donors; assay: Thrombocyte aggregation inhibiting activity by the method of Born and Cross (platelet-rich plasma); assay type: cell-based; details: optical density
Protocol: 1. Determination of the thrombocyte aggregation inhibiting activity by the method of Born and Cross [J. Physiol. 170, 397 (1964)]:
The thrombocyte aggregation was measured in the platelet-rich plasma of healthy human donors. The decrease in optical density was measured and recorded photometrically after the addition of adenosine diphosphate or collagen. From the angle of inclination of the density curve, the rate of aggregation was estimated (Vmax). The optical density was taken as the point on the curve where the most light was transmitted (O.D.).
The EC50 values in the tables indicate the optical density.
Small doses of collagen were chosen, but sufficient to give irreversible aggregation. To provoke maximum aggregation, about 0.01 ml of the collagen solution was added to 1 ml of platelet-rich plasma. (Commercial collagen of Hormonchemie, Munich). The adenosine diphosphate (ADP) doses were chosen to give only the first phase of the BORN curve. The necessary amount of ADP was about 1×10^-6 mol/l. Commercial ADP of Boehringer Mannheim was used.
The substance dose which produced a 50% inhibition of the thrombozytes aggregation (EC50) was determined graphically.

[2] = Acute toxicity, oral; assay type: in vivo; details: mouse, in vivo; mice, single oral dose, 14 days observation; read-out: Acute Toxicity per os
Protocol: (§1) The acute toxicity of the test compounds was determined on groups of 10 mice each after oral administration of a single dose of 1,000 mg/kg (observation time: 14 days).

[3] = test system: mice; assay: Acute toxicity, oral; assay type: in vivo; details: single oral dose of 1,000 mg/kg, 14 days observation
Protocol: as §1

[4] = test system: auricles (rat heart); assay: Positive inotropic activity on isolated rat auricles; parameters: species or system rats; details: 1×10^-5 gm/ml, 30° C., from the starting values, read-out: % Increase in Force of Contraction
Protocol: Rats were anesthetized with ether and subsequently killed by a blow on the neck. After opening the thorax, the heart was removed and both auricles were separated. The auricles were put into an organ bath of 100 ml containing a tyrode solution at a temperature of 30° C. The tyrode solution was infused with carbogen (95% of O2 and 5% of CO2). The spontaneous contractions of the auricles were registered isometrically. The auricles were weighted with 1 gm. The compounds in question were tested on 4 auricles each at 1×10^-5 gm/ml. The alteration of the contraction force was registered in % from the starting values.

[5] = test system: phosphodiesterase (PDE), supernatant of human blood platelets; assay: PDE inhibition (3H-cAMP hydrolysis); assay type: biochemical; details: human blood platelet PDE, 1 μmol/liter 3H-cAMP, pH 7.4, 15 minutes, 37° C.
Protocol: cAMP is hydrolysed to AMP by phosphodiesterase (PDE) from various sources, including blood platelets. This hydrolysis is inhibited by PDE inhibitors according to the concentration.
The phosphodiesterase used was the 10,000×g supernatant of human blood platelets which had been frozen with water and thawed out again.
An amount of 0.3 ml of a mixture which contained 0.1 mole/liter of trihydroxy-aminomethane (pH 7.4), 3 mmole/liter of magnesium chloride, 1 mmole/liter of AMP, 1 μmol/liter of ^3 H-cAMP (specific activity about 10 MBq/μmol), PDE as well as the substance to be tested and water for the control were incubated for 15 minutes at 37° C.
The incubation was stopped by the addition of 0.5 ml of zinc sulfate (0.266 mole/liter) and 0.5 ml of barium hydroxide (0.266 mole/liter), the precipitate was centrifuged and the activity remaining in the supernatant of the unreacted ^3 H-cAMP was determined. From a comparison of the substance preparations and the control preparations, the concentration for a 50% inhibiting activity (IC50) of the respective substance was calculated.

[6] = test system: conscious mice; assay: Prolongation of the bleeding time (mouse tail); assay type: in vivo; details: po, 10 mg/kg orally, after 1 hour, compared to control group, read-out: Prolongation of the bleeding time in % after one hour
Protocol: The function of the thrombocytes can be determined by measuring the bleeding time. The normal bleeding time in human beings is in the range of 1 to 3 minutes and needs intact thrombozytes in a sufficient number. If the number of thrombocytes is normal and the bleeding time is prolonged, this signifies a disturbed function of the thrombocytes. This is found in some congenital defects of thrombocyte function (V. Willebrand's disease, for example). If, on the other hand it is the aim to prevent spontaneous aggregation of the thrombocytes and occlusion in the arterial system by antithrombotic drugs, the bleeding time should be prolonged as a consequence. Therefore, using antithrombotic substances, a prolongation of the bleeding time is expected. If the plasma coagulation system is not influenced by such a medicine, coagulation tests will give a normal result.
To measure the bleeding time, 10 mg/kg of the test compound is administered orally to conscious mice. After 1 hour, 0.5 mm of the tip of the mousetail is cut off and droplets of blood are gently removed with filter paper every 30 second. The number of drops of blood give a measure for the bleeding time (5 animals/experiment).
The numbers in the following table represent the prolongation in % compared to the control group.

[7] = test system: Platelet Thromboses in the Rat; assay: Influence on platelet thromboses in the rat (electrical irritation of a vein); assay type: in vivo; details: male rats, five animals per dose, 20 minutes observation, vs. untreated group; dose not given
Protocol: Literature: H. Poliwoda, J. Lilli, G. Hagemann, D. Schyma: Z. ges. exp. Med., 145, 252 (1968)
Male rats (body weight between 70 and 90 grams) received an intraperitoneal Nembutal anesthesia (dose: 50 to 60 mg/kg). To avoid hypothermia, they were positioned on a heated test table (about 37° C.). The respiratory passage was held free by insertion of a tracheal cannula.
After a transverse abdominal incision was made, an intestinal loop was exposed and fixed, and a vein, with a diameter of about 300 μ was prepared. A monopolar platinum electrode embedded in glass and having a tip diameter of about 100μ was applied to the vein as an irritating cathode. The indifferent electrode was applied to the same vessel opposite the cathode. The irritation was provoked by 150 volts of direct current for a period of 100 milliseconds. After the irritation, the area of observation was continuously rinsed with warm (37° C.) physiological salt solution.
The formation and growth of the thrombosis was followed under a binocular microscope over a time period of 20 minutes. During the entire period of observation, the percentage of the vessel volume closed by the thrombosis was estimated at different time intervals.
Five animals per dose were used, and the results were averaged.
In the test compound experiments, the average size of the thrombosis in the treated animal group was compared with that of an untreated animal group. The result was given as "percentage reduction of the average thrombosis size." The following table contains the values obtained.

[8] = test system: thrombocytes (number in the blood after tumor cell injection); assay: Effect on tumor cell embolism: thrombocyte decrease after intravenous tumor cell injection in rats; assay type: in vivo; details: control 70
Source text: (b) By virtue of the injection of tumor cells, a strong decrease in the number of thrombocytes in the blood was produced in the test animals (rats) as a consequence of thrombocyte and tumor cell thrombocyte aggregation. […] By administration of suitable substances, the extent of the thrombocyte decrease can be reduced as compared to that of the untreated control animals.

[9] = test system: Walker-256 carcinosarcoma cells; assay: Effect on tumor cell embolism: mortality after injection of Walker-256 carcinosarcoma cells in mice; assay type: in vivo
Protocol: (a) Mice having a body weight of about 25 grams received an injection in the jugular vein of a million Walker-256 carcinosarcoma cells. These tumor cells lead to a formation of thrombocyte clumps, which causes a fatal tumor cell embolism in a portion of the animals. Under the influence of the test compounds, the number of deceased animals can be reduced. Normally, about 65% of the control animals died within 10 minutes as a result of pulmonary embolism.

[10] = ADP-induced (about 1×10^-6 mol/l), read-out: EC50 (50% inhibition of thrombocyte aggregation), ADP
[11] = collagen-induced, read-out: EC50 (50% inhibition of thrombocyte aggregation), Collagen

Row | Compound | EC50 [1, 10] | EC50 [1, 11] | LD50 at 336 h [2] | animals died (acute toxicity per os) [3] | activation at 10 µg/mL [4] | IC50 [5] | change in vivo at 10 mg/kg [6] | Percentage Reduction of the Average Thrombosis Size [7] | % Reduction of the Number of Thrombocytes ([8]; dose 2 mg/kg) | % Reduction of the Number of Thrombocytes ([8]; dose 6 mg/kg) | % Reduction of the Number of Thrombocytes ([8]; dose 18 mg/kg) | Percentage of Deceased Animals ([9]; 2 mg/kg p.o.) | Percentage of Deceased Animals ([9]; 6 mg/kg p.o.) | % Reduction of the Number of Thrombocytes ([8]; dose 4 mg/kg) | % Reduction of the Number of Thrombocytes ([8]; dose 8 mg/kg)
1 | O=C1CCc2cc(OCCCCS(=O)(=O)c3ccccc3)ccc2N1 [Compound C, 6-(4-Phenylsulfonyl-butoxy)-3,4-dihydro-carbostyril] | 15 µM | 5 µM | > 1000 mg/kg | 0 out of 10 animals | 35% | 1.5 µM | 26% | – | – | – | – | – | – | – | –
2 | Cc1cc(=O)[nH]c2ccc(OCCCC[S+]([O-])c3ccccc3)cc12 (stereo not shown) [Q, 4-Methyl-6-(4-phenylsulfinyl-butoxy)-carbostyril] | 40 µM | 3.6 µM | > 1000 mg/kg | 0 out of 10 animals | 58% | 0.64 µM | 39% | 22% | – | – | – | – | – | – | –
3 | COc1ccccc1[S+]([O-])CCCCOc1ccc2c(c1)CCC(=O)N2 (stereo not shown) [M, 6-[4-(2-Methoxyphenyl-sulfinyl)-butoxy]-3,4-dihydro-carbostyril] | 22 µM | 4 µM | > 1000 mg/kg | 0 out of 10 animals | 65% | 0.15 µM | 27% | – | – | – | – | – | – | – | –
4 | O=C1CCc2cc(OCCCC[S+]([O-])c3ccc4ccccc4c3)ccc2N1 (stereo not shown) [L, 6-[4-(2-Naphthyl-sulfinyl)-butoxy]-3,4-dihydro-carbostyril] | 10 µM | 1 µM | > 1000 mg/kg | 0 out of 10 animals | 63% | 0.14 µM | 15% | – | – | – | – | – | – | – | –
5 | O=C1CCc2cc(OCCCC[S+]([O-])c3ccc(Cl)c(Cl)c3)ccc2N1 (stereo not shown) [U, 6-[4-(3,4-Dichlorophenyl-sulfinyl)-butoxy]-3,4-dihydro-carbostyril] | 15 µM | 4 µM | > 1000 mg/kg | 0 out of 10 animals | – | 0.27 µM | 33% | 32% | 34% | 20.8% | 1.1% | 40% | 13% | – | –
6 | O=C1CCc2cc(OCCCC[S+]([O-])c3ccc(Cl)cc3)ccc2N1 (stereo not shown) [I, 6-[4-(4-Chlorophenyl-sulfinyl)-butoxy]-3,4-dihydro-carbostyril] | 10 µM | 4 µM | > 1000 mg/kg | 0 out of 10 animals | 52% | 0.8 µM | > 300% | 4% | – | – | – | – | – | – | –
7 | O=c1ccc2cc(OCCCCS(=O)(=O)c3ccccn3)ccc2[nH]1 [T, 6-[4-(2-Pyridyl-sulfonyl)-butoxy]-carbostyril] | 6 µM | 0.1 µM | > 1000 mg/kg | 0 out of 10 animals | 32% | 1 µM | 5% | 29% | 29% | – | – | 23% | 6.7% | 15% | 1.1%
8 | O=C1CCc2cc(OCCCC[S+]([O-])c3cc(Cl)ccc3Cl)ccc2N1 (stereo not shown) [S, 6-[4-(2,5-Dichlorophenyl-sulfinyl)-butoxy]-3,4-dihydro-carbostyril] | 10 µM | 1 µM | > 1000 mg/kg | 0 out of 10 animals | 83% | 2.1 µM | – | – | – | – | – | – | – | – | –
9 | O=C1CCc2cc(OCCCCS(=O)(=O)c3ccccn3)ccc2N1 [F, 6-[4-(2-Pyridyl-sulfonyl)-butoxy]-3,4-dihydro-carbostyril] | 20 µM | 20 µM | > 1000 mg/kg | 0 out of 10 animals | 18% | 3.8 µM | 91% | – | – | – | – | – | – | – | –
10 | O=C1CCc2cc(OCCCC[S+]([O-])c3ccccc3)ccc2N1 (stereo not shown) [B, 6-(4-Phenylsulfinyl-butoxy)-3,4-dihydro-carbostyril] | 20 µM | 4 µM | > 1000 mg/kg | 0 out of 10 animals | 30% | 1.9 µM | 102% | 23% | – | – | – | – | – | – | –
11 | O=C1CCc2cc(OCCCC[S+]([O-])c3ccccn3)ccc2N1 (stereo not shown) [E, 6-[4-(2-Pyridyl-sulfinyl)-butoxy]-3,4-dihydro-carbostyril] | 25 µM | 6.5 µM | > 1000 mg/kg | 0 out of 10 animals | 16% | 3.9 µM | 152% | 16% | – | – | – | – | – | – | –
